Reference: patent US11701364B2, “Agonists of stimulator of interferon genes sting” (The Scripps Research Institute, priority 2018, dated 2023)

target: T1, STING (Stimulator of Interferon Genes) (Homo sapiens, UniProt Q86WV6, G230A/H232R/R293Q/R71H); assay: ISG-LUC activation assay (ISRE-Luciferase assay in THP-1 Lucia ISG reporter cells); type: cell-based; settings: THP-1 Lucia ISG cells, 24 hours, luciferase reporter; read-out: ISG-LUC activation assay (EC50)
T1 construct: host or cells: THP-1-Lucia ISG cells (human monocytic line)
T1 sequence (Q86WV6 whole entry R71H/G230A/H232R/R293Q): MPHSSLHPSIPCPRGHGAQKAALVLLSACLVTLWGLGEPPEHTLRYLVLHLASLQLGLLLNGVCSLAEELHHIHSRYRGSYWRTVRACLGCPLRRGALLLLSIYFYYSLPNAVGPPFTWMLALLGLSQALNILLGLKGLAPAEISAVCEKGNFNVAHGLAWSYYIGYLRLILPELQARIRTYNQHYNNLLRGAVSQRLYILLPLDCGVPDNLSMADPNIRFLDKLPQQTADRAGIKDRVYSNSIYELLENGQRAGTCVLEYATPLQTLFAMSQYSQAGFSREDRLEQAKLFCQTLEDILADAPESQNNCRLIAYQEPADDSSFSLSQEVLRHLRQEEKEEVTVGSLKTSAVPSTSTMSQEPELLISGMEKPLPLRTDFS
Text: This has been established using a primary assay involving a human THP-1 cell line carrying an IRF-inducible reporter with 5 copies of the IFN signaling response element. Counter screens, involving alternative reporter constructs, rodent cell-based assays, as well as cGAS and STING knock-out cell lines, are used to eliminate luciferase artifacts and ensure human-rodent cross species reactivity, as well as pathway selectivity. Biochemical assays, involving cGAS enzymatic activity and STING protein binding assays, are used to identify the specific target of identified hits.
THP-1 Lucia ISG cells were resuspended in low-serum growth media (2% FBS) at a density of 5×10^5 cells/ml and treated with test article or vehicle (DMSO). 50 μL of cells were seeded into each well of a 384-well white greiner plates and incubated for 24 hours. To evaluate expression of the luciferase reporter, 30 μl of Quanti-luc (Invivogen) detection reagent was added to each well and luminescence was read using an Envision plate reader (Perkin Elmer) set with an integration time of 0.1 seconds.

| Compound | EC50 [nM] |
| --- | --- |
| O=C(Nc1ccccc1C(O)(C(F)(F)F)C(F)(F)F)c1ccc(-n2ccnc2)nn1 [Compound 1] | 593 |
| COC(=O)c1ccc(F)c(C)c1NC(=O)c1ccc(-n2ccnc2)nn1 [Compound 2] | 4690 |
| COC(=O)c1c(F)ccc(F)c1NC(=O)c1ccc(-n2ccnc2)nn1 [Compound 3] | 10200 |
| O=C(Nc1ccccc1C(=O)OC1CCC1)c1ccc(-n2ccnc2)nn1 [Compound 4] | 2070 |
| COC(=O)c1ncccc1NC(=O)c1ccc(-n2ccnc2)nn1 [Compound 5] | 1240 |
| COC(=O)c1ccc(C)c(C)c1NC(=O)c1ccc(-n2ccnc2)nn1 [Compound 6] | ~2760 |
| Cc1noc(-c2ccccc2NC(=O)c2ccc(-n3ccnc3)nn2)n1 [Compound 7] | > 50000 |
| COC(=O)c1ccncc1NC(=O)c1ccc(-n2ccnc2)nn1 [Compound 8] | 2570 |
| Cc1cc2nc(-c3ccc(-n4ccnc4)nn3)oc(=O)c2cc1C [Compound 9] | 163 |
| COC(=O)c1cc(NC(=O)c2ccc(-n3ccnc3)nn2)cc(F)c1F [Compound 10] | 468 |
| COC(=O)c1cc(C)c(C)cc1NC(=O)c1ccc(-n2ccnc2)nn1 [Compound 11] | 103 |
| COC(=O)c1ccc(C#N)cc1NC(=O)c1ccc(-n2ccnc2)nn1 [Compound 12] | 159 |
| COC(=O)c1cc(F)ccc1NC(=O)c1ccc(-n2ccnc2)nn1 [Compound 13] | 249 |
| COC(=O)c1cc(OC)ccc1NC(=O)c1ccc(-n2ccnc2)nn1 [Compound 14] | 288 |
| COC(=O)c1ccc(C)cc1NC(=O)c1ccc(-n2ccnc2)nn1 [Compound 15] | 294 |
| COC(=O)c1ccc(F)cc1NC(=O)c1ccc(-n2ccnc2)nn1 [Compound 16] | 684 |
| COC(=O)c1ccc(Cl)cc1NC(=O)c1ccc(-n2ccnc2)nn1 [Compound 17] | 312 |
| COC(=O)c1ccc(F)c(F)c1NC(=O)c1ccc(-n2ccnc2)nn1 [Compound 18] | 568 |
| COC(=O)c1cc(F)cc(F)c1NC(=O)c1ccc(-n2ccnc2)nn1 [Compound 19] | 817 |
| CCc1ccc(NC(=O)c2ccc(-n3ccnc3)nn2)c(C(=O)OC)c1 [Compound 20] | 418 |
| COC(=O)c1cc(F)c(C)cc1NC(=O)c1ccc(-n2ccnc2)nn1 [Compound 21] | 90.4 |
| CC(C)COC(=O)c1ccccc1NC(=O)c1ccc(-n2ccnc2)nn1 [Compound 22] | 895 |

| Compound | EC50 [nM] |
| --- | --- |
| COC(=O)c1cc2ccccc2cc1NC(=O)c1ccc(-n2ccnc2)nn1 [Compound 23] | 56.1 |
| CC(C)OC(=O)c1cc(F)c(F)cc1NC(=O)c1ccc(-n2ccnc2)nn1 [Compound 24] | 736 |
| CC(C)OC(=O)c1cc(F)ccc1NC(=O)c1ccc(-n2ccnc2)nn1 [Compound 25] | 805 |
| COC(=O)c1cc(C(F)(F)F)ccc1NC(=O)c1ccc(-n2ccnc2)nn1 [Compound 26] | 114 |
| COC(=O)c1ccc(C(F)(F)F)cc1NC(=O)c1ccc(-n2ccnc2)nn1 [Compound 27] | 136 |
| COC(=O)c1cc(OC)c(F)cc1NC(=O)c1ccc(-n2ccnc2)nn1 [Compound 28] | 95.8 |
| O=c1oc(-c2ccc(-n3ccnc3)nn2)nc2cc(F)c(F)cc12 [Compound 29] | 140 |
| CCOC(=O)c1nc(C)ccc1NC(=O)c1ccc(-n2ccnc2)nn1 [Compound 30] | 149 |
| COC(=O)c1ccc(C2CC2)cc1NC(=O)c1ccc(-n2ccnc2)nn1 [Compound 31] | 206 |
| COC(=O)c1cc(C2CC2)ccc1NC(=O)c1ccc(-n2ccnc2)nn1 [Compound 32] | 359 |
| Cc1cc2c(=O)oc(-c3ccc(-n4ccnc4)nn3)nc2cc1F [Compound 33] | < 19.5 |
| COC(=O)c1cc(Cl)c(Cl)cc1NC(=O)c1ccc(-n2ccnc2)nn1 [Compound 34] | 72.6 |
| O=c1oc(-c2ccc(-n3ccnc3)nn2)nc2cc(Cl)c(Cl)cc12 [Compound 35] | 61.7 |
| O=c1oc(-c2ccc(-n3ccnc3)nn2)nc2cc(Cl)c(F)cc12 [Compound 36] | 40.3 |
| N#Cc1ccc2c(=O)oc(-c3ccc(-n4ccnc4)nn3)nc2c1 [Compound 37] | 166 |
| COc1ccc2c(=O)oc(-c3ccc(-n4ccnc4)nn3)nc2c1 [Compound 38] | 485 |
| Cc1cc2nc(-c3ccc(-n4ccnc4)nn3)oc(=O)c2cc1F [Compound 39] | 30.8 |
| COc1ccc2nc(-c3ccc(-n4ccnc4)nn3)oc(=O)c2c1 [Compound 40] | 684 |
| O=c1oc(-c2ccc(-n3ccnc3)nn2)nc2ccc(OC(F)(F)F)cc12 [Compound 41] | 176 |
| O=c1oc(-c2ccc(-n3ccnc3)nn2)nc2cc(F)c(OC(F)(F)F)cc12 [Compound 42] | 373 |
| COC(=O)c1nc(Br)c(F)cc1NC(=O)c1ccc(-n2ccnc2)nn1 [Compound 43] | 142 |
| COC(=O)c1cc(OC(F)(F)F)c(F)cc1NC(=O)c1ccc(-n2ccnc2)nn1 [Compound 44] | 573 |

| Compound | EC50 [nM] |
| --- | --- |
| COC(=O)c1cc2cnn(C)c2cc1NC(=O)c1ccc(-n2ccnc2)nn1 [Compound 45] | 126 |
| Cc1cc(NC(=O)c2ccc(-n3ccnc3)nn2)c(C(=O)OCCCCO)cc1C [Compound 46] | 418 |
| COC(=O)c1cc(Cl)c(C)nc1NC(=O)c1ccc(-n2ccnc2)nn1 [Compound 47] | 282 |
| COC(=O)c1cc(C(F)(F)F)cc(F)c1NC(=O)c1ccc(-n2ccnc2)nn1 [Compound 48] | 475 |
| COC(=O)c1cc(C#N)ccc1NC(=O)c1ccc(-n2ccnc2)nn1 [Compound 49] | 588 |
| COC(=O)c1cc(C)c(F)cc1NC(=O)c1ccc(-n2ccnc2)nn1 [Compound 50] | 145 |
| COC(=O)c1c(F)cc(F)cc1NC(=O)c1ccc(-n2ccnc2)nn1 [Compound 51] | 198 |
| COC(=O)c1cc(F)c(OC)cc1NC(=O)c1ccc(-n2ccnc2)nn1 [Compound 52] | 74.4 |
| O=C(Nc1cc(Cl)c(F)cc1C(=O)O)c1ccc(-n2ccnc2)nn1 [Compound 53] | ~625 |
| COc1cc(NC(=O)c2ccc(-n3ccnc3)nn2)c(C(=O)O)cc1F [Compound 54] | 248 |
| COC(=O)c1cc(C#N)c(F)cc1NC(=O)c1ccc(-n2ccnc2)nn1 [Compound 55] | 221 |
| COC(=O)c1cc(F)c(C2CC2)cc1NC(=O)c1ccc(-n2ccnc2)nn1 [Compound 56] | 302 |
| COC(=O)c1cc(OC)c(Cl)cc1NC(=O)c1ccc(-n2ccnc2)nn1 [Compound 57] | < 19.5 |
| COC(=O)c1cc(F)c(Br)cc1NC(=O)c1ccc(-n2ccnc2)nn1 [Compound 58] | 60.6 |
| COC(=O)c1cc(F)c(OC)c(F)c1NC(=O)c1ccc(-n2ccnc2)nn1 [Compound 59] | 780 |
| COC(=O)c1cc(Cl)c(Br)c(F)c1NC(=O)c1ccc(-n2ccnc2)nn1 [Compound 60] | 62.2 |
| COC(=O)c1cc(C)c(Cl)cc1NC(=O)c1ccc(-n2ccnc2)nn1 [Compound 61] | 124 |
| COc1ccc(C(=O)O)c(NC(=O)c2ccc(-n3ccnc3)nn2)c1 [Compound 62] | 1460 |
| NC(=O)c1cc(F)c(F)cc1NC(=O)c1ccc(-n2ccnc2)nn1 [Compound 63] | 2640 |
| CCOC(=O)c1ccccc1NC(=O)c1ccc(-n2ccnc2)nn1 [Compound 64] | 926 |
| CCc1ccc(NC(=O)c2ccc(-n3ccnc3)nn2)c(C(=O)OC(C)C)c1 [Compound 65] | 1160 |
